Assay results published in doi:10.1101/155374v1, “A trapped double bond-photoisomerization intermediate in a bacterial photoreceptor” (biorxiv, 2017).

Biological target: T1, Slr1393g3 (GAF3 domain of cyanobacteriochrome Slr1393) (Synechocystis sp. PCC 6803, UniProt P73184)
T1 construct: isolated GAF3 domain, residues 441-596 modelled (155 amino acids stated), N-terminal His tag (tag residues seen at both ends), expressed in E. coli; one monomer per ASU, dimer in solution for Pr state
T1 sequence (P73184 441-596): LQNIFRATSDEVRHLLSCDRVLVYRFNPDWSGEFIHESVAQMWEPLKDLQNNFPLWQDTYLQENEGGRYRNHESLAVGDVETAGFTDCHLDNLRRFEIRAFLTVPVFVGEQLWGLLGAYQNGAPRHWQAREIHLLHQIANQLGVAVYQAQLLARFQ
Assay: X-ray crystallography
Format: binding
Conditions: covalent; thioether bond of Cys528 to C3(1) of PCB; 5DFY in vitro assembled Pr 1.6 A; 5DFX in vivo Pr 1.8 A; 5M82 Pg (15-E) 1.86 A; 5M85 X-ray induced intermediate 2.1 A

Compound: C/C=C1/C(=C/c2[nH]c(/C=C3N=C(/C=C4\NC(=O)C(CC)=C4C)C(C)=C\3CCC(=O)O)c(CCC(=O)O)c2C)NC(=O)[C@@H]1C [PCB, phycocyanobilin]
- X-ray crystallography: The PCB chromophore is covalently bound to Cys528 on helix a4
